T1: complement component 5a (Homo sapiens, UniProt P01031)
T1 sequence (P01031 678-751 limits assumed): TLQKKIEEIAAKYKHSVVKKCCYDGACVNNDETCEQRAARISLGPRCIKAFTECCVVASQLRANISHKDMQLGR

B1: C5a: anaphylatoxin, pro-inflammatory polypeptide, the natural ligand of the receptor C5aR1 (protein, UniProt P01031 678-751, looked up)
C5a anaphylatoxin: T1 sequence (P01031 678-751 limits assumed)
modifications: C5a anaphylatoxin
notes: anaphylatoxin, pro-inflammatory polypeptide, the natural ligand of the receptor C5aR1

What was measured:
complement component 5a = target: T1, complement component 5a; test: BIAcore SPR binding to C5a immobilised on sensorchip CM5; settings: 300 microM in Running Buffer
Text: (§1) BIAcore technology was used to analyze the interaction between Paclitaxel and complement component 5a receptor 1 (C5aR1) (Example 1), complement component 5a receptor 2 (C5AR2) (Example 2) or complement component 5a (Example 3).
(§2) The BIAcore systems exploit the phenomenon of Surface Plasmon Resonance (SPR) to monitor interactions between molecules in real time. Briefly, SPR phenomenon occurs in thin conducting films at an interface between media of different refractive index. In BIAcore systems, the media are the glass of the sensorchip and the sample solution, and the conducting film is a thin layer of gold on the sensorchip surface. BIAcore monitors the interaction between two molecules, one attached to the sensor surface, called ligand, and the other one free in solution, and called analyte.
C5a was immobilized on a sensorchip (#29149604, Cytiva). In details, 20 microg/ml of recombinant protein C5a was diluted in 10 mM acetate buffer at pH 4.5 and injected over the surface of the sensorchip. Activation and deactivation of sensorchip were performed as described in Example 1a).
Paclitaxel was injected on the C5A surface of the sensorchip prepared in Example 2a) at a concentration of 300 microM in Running Buffer.RU can be detected by BIAcore.

[1] = tested on: RAW 264.7 mouse macrophages; test: Proteome profiler cytokine release assay in RAW 264.7 macrophages; type: cell-based; settings: 10 nM, 24 h; for proteome profile of cytokines released: murine
Protocol: RAW 264.7 (ATTC TIB-71) mouse macrophages were cultured following manufacturer's instructions using DMEM medium (Euroclone, MI, Italy) supplemented with 10% FBS (non-heat inactivated) (ATCC, USA) at 37° C., in a humidified 95% air-5% CO2 atmosphere and then were seeded at 1*10^4 cells/cm^2.
(§3) After 24 hours, cells were treated with C5a (diluted in medium) (10 nM, R&D, USA), Paclitaxel (diluted in medium) (10 nM, Sigma, USA) in the absence and in the presence of the C5a inhibitor DF3966A (10 μM), and anti C5aR Ab (BioLegend, CA, USA; 50 nM) or Avacopan (10 μM) for 24 hours, then the media was replaced with culture media (5 ml) for 24 h and then collected.
(§4) Conditioned media were centrifugated to remove particulates and assayed immediately. […] The reagents were prepared following manufacturer's protocols (R&D, USA). Briefly, the membranes were incubated with Array Buffer 6 for 1 hour on a rocking platform shaker. The samples were prepared by adding up to 1 ml of Array Buffer 4 in two separated tubes and then 15 microl of reconstituted mouse cytokine detection antibody cocktail (>40 mouse cytokines) to each prepared sample and incubated 1 hour. Then, the Array Buffer 6 was aspirated and replaced with the sample/antibody mixtures and incubated at 4° C. overnight. The following day, membranes were washed 3 times and Streptavidin-HRP (1:2000) was incubated for 30 minutes at room temperature on a rocking platform shaker. The membranes were washed again, and 1 ml of prepared Chemi Reagent mix was placed onto each membrane. Multiple exposure times were acquired using UVITEC digital analyzer (Alliance, Cambridge, UK).
(§5) The positive signals seen in the developed membranes can be identified by placing the transparency overlay template on the array image and aligning it with pairs of reference spots in the three corners of each array (see FIG. 10). […] Pixel densities (average signals of pair of duplicates which represent each cytokine) were analyzed by ImageJ and the average background was subtracted from each spot.
(§6) In details, the profiling of cytokines released (>40 cytokines) from RAW 264.7 and human macrophages challenged with paclitaxel (Sigma-Aldrich; 10 nM) or C5a (R&D Systems, Inc. MN, USA; 10 nM) for 24 h using a proteome profiler assay. […] The experimental assay is explained in example 4.
(§7) For the human macrophages, human XL Cytokine Array kit #Ary022B was used, while for murine macrophages mouse cytokine Array Panel A #Ary006 was used (R&D systems, USA).

[2] = tested on: human (THP-1) macrophages; test: Proteome profiler cytokine release assay in human macrophages; type: cell-based; settings: human; 10 nM, 24 h
Protocol: as §3, §4, §5, §6, §7

[3] = target: T2, complement component 5a receptor 2 (C5AR2) (Homo sapiens, UniProt Q9P296); test: BIAcore SPR binding to C5aR2 immobilised on sensorchip CM5 via His-tag
T2 construct: purchased CUSABIO CSB-CF868390HU
T2 sequence (Q9P296 whole entry): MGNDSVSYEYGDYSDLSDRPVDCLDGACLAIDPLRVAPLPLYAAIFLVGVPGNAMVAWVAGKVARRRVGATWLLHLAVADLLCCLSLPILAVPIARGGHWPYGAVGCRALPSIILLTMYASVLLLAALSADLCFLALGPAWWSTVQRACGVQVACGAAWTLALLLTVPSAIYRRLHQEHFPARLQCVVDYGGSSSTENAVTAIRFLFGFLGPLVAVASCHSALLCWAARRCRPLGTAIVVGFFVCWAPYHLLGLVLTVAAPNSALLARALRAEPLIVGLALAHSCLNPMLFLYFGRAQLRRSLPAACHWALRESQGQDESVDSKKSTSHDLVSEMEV
Text: as §1, §2
A policlonal anti-His antibody (ab137839, Abcam) was immobilized on a sensorchip CM5 (#29149604, Cytiva). In details, the antibody was diluted at a concentration of 50 μg/ml in 10 mM acetate buffer at pH 4.0, and injected over the surface of the sensorchip. Activation and deactivation of sensorchip were performed as described in Example 1a). […] Once the antibody was immobilized, the receptor was captured in an oriented way on the surface of the sensorchip. In particular, C5AR2-His (CSB-CF868390HU, CUSABIO) at a concentration of 100 μg/ml was injected onto the sensorchip with a flow rate of 5 microl/min in Running Buffer.
5 μM C5a (A144, Complement Technologies) was injected on C5AR2 surface of the sensorchip prepared in Example 2a).
Paclitaxel was injected on the C5aR2 surface of the sensorchip prepared in Example 2a) at different concentrations (10, 100 and 200 microM) in Running Buffer, and the amount of obtained RU was evaluated.

Molecule | binding to immobilised C5a (complement component 5a) | levels of MCP-1, MIP-1α, MIP-1β, MIP-2 and ID Ra compared to the control group [1] | proteome profile of cytokines released [1] | proteome profile of cytokines released [2] | binding to immobilised C5aR2 ([3]; 10, 100 and 200 microM in Running Buffer) | binding to immobilised C5aR2 (legend of FIG. 8) ([3]; from 4.06 μM to 37.5 μM) | binding to immobilised C5aR2 ([3]; 5 μM)
CC(=O)O[C@H]1C(=O)[C@@]2(C)[C@H]([C@H](OC(=O)c3ccccc3)[C@]3(O)C[C@H](OC(=O)[C@H](O)[C@@H](NC(=O)c4ccccc4)c4ccccc4)C(C)=C1C3(C)C)[C@]1(OC(C)=O)CO[C@@H]1C[C@@H]2O [Paclitaxel] | not able to bind | significantly increased | resembled that of typical anaphylaxis | resembled that of typical anaphylaxis | not able to bind | not able to bind | –
B1 | – | significantly increased | resembled that of typical anaphylaxis | resembled that of typical anaphylaxis | – | – | is able to bind

From US20240180888A1, “C5AR1 INHIBITORS FOR TREATING […] REACTIONS TO TAXANES” (Dompe' Farmaceutici SPA, priority 2021, published 2024)
